{"source": "patent US20070031482A1", "about": "“PDT treatment method for cellulites and cosmetic use” (CeramOptec Industries, Ind., priority 2005, published 2007)", "key": {"[1]": {"conditions": "without light activation; cited from earlier work"}, "[2]": {"tested_on": "cellulites", "test": "PDT treatment of cellulites with Temoporfin solution by Mesotherapy and diode laser (Example 1)", "type": "in vivo, patient", "conditions": "1 session per area, followed by appropriate physiotherapy / complementary session (ultrasound, lymph-drainage, electro-stimulation); evaluation after 30 days", "protocol": "A patient having cellulites is treated with Temoporfin in several sessions. The variables in this treatment program are as follows: • 1.—A determination of the grade of cellulites in the patient. • 2.—A determination of the dose and concentration of Temoporfin and to confirm that it produces an improvement on the cellulites, and to further insure that it is possible to apply it directly by Mesotherapy without the need of systemic introduction. • 3.—A determination as to the potency of Temoporfin based on the time of application to the time of laser application; and • 4.—A determination as to accompanying treatments. In this EXAMPLE, the patient is administered the Temoporfin solution as follows: In all sequences, the treatment consists 1 session only per area to be treated, and, if necessary, it is repeated in 30 days. In general, it was observed that only 1 session followed by appropriate physiotherapy, a complementary session (like ultrasound, lymph-drainage, isotonic and isometric electro-stimulation), was usually sufficient in more than 80% of the patients. If it was necessary to repeat it, an evaluation is done after 30 days. Table 2 presents further information as to the stage of cellulite, concentration of mTHPC (Temoporfin), dose, surface area being treated; strength, power level and time of laser radiation application. [table] […]"}, "[3]": {"conditions": "cited from earlier work"}}, "data": [{"smiles": "Oc1cccc(-c2c3nc(c(-c4cccc(O)c4)c4ccc([nH]4)c(-c4cccc(O)c4)c4nc(c(-c5cccc(O)c5)c5ccc2[nH]5)CC4)C=C3)c1", "note": "[Temoporfin]", "values": [{"measurement": "effect in the dark", "setting": "[1]", "result": "totally innocuous and inactive in the dark"}, {"measurement": "patients in whom only 1 session was usually sufficient", "setting": "[2]", "result": "more than 80 % of the patients"}, {"measurement": "solubility in triglycerides", "setting": "[3]", "result": "not soluble in triglycerides"}]}]}
